In patent US12590124B2, “Peptide with neutralizing activity against severe acute respiratory syndrome coronavirus 2” (CAREGEN CO, LTD., priority 2020, dated 2026) one finds Inhibition rate data, which are given here for four substances.

The test concerns SARS-CoV-2. The conditions noted are these: 1 h.

Like-named read-outs stand apart in the source and are kept apart here. Where no end group is shown, it is not given here.

Regarding KFNRRHH [SEQ ID NO: 2, KFNRRHH], the Inhibition rate is 51% (2.5 mM) and 96% (10 mM).
With “KYLLVHRPYYRR [SEQ ID NO: 3, KYLLVHRPYYRR]”, the Inhibition rate runs as follows: (2.5 mM) 98%; (10 mM) 98%.
On to RSYMTTHHEQF [SEQ ID NO: 1, RSYMTTHHEQF], for which the Inhibition rate reads like this: (2.5 mM) 21%; (10 mM) 100%.
The matching figures for “WVPYQARVPYPR [SEQ ID NO: 4, WVPYQARVPYPR]”: 55% and 98%.
